The target in one assay is T1, Human DYRK1B (Homo sapiens, UniProt Q9Y463).
T1 construct: purchased Invitrogen PR8350B (former PV4649)
Description: DYRK1B Kinase TR-FRET (IMAP-Tb) Assay. It is filed as biochemical. The following applies: TR-FRET (IMAP-Tb), ATP 70 μM, 37° C. 60 minutes. On the technique in general: TR-FRET usually uses a lanthanide donor and a delayed reading to cut background.

The target in another assay is T2, Human DYRK1A (Homo sapiens, UniProt Q13627).
T2 construct: purchased Invitrogen PV3997
Description: DYRK1A Kinase TR-FRET (IMAP-Tb) Assay. It is filed as biochemical. The following applies: TR-FRET (IMAP-Tb); ATP 70 μM; 37° C. 60 minutes; read-out: Enzyme IC50 (μM) DYRK1A. The method, boiled down: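 Recombinant human DYRK1A phosphorylated fluorescent substrate peptide (1.0 μM) with ATP in 10 mM HEPES pH 7.0, 50 mM NaCl, 5 mM MgCl2, 1 mM DTT, 1 mM NaVO4, 0.02% BSA for 60 min at 37 °C. Phosphopeptide detected by IMAP terbium TR-FRET; IC50 reported.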

Assay [1] concerns SW620 human colon cancer cells. Briefly: SW620 Cell Viability Assay. It is filed as cell-based. The following applies: Homo sapiens, SW-620, 96 h, read-out: Cellular EC50 (μM) SW620. The method, then:
Some cells (S—) were allowed to attach for 24 hrs, serum starved for 48 hrs, and then followed with drug treatments Test Compound Solutions were Prepared in Regular Corresponding Media Supplemented with Serum 2. […] Viability Assay: This assay was performed as follows: • Transfer 50 μL of test compound solution per well from the test compound plate onto the cell plate prepared in Step #1. • Mix the plate with treated cells by pipetting up and down three times with 200 μL multi-channel pipette. • Incubate the cells in 5% CO2 incubator @ 37° C. for 4 days. • Run the CellTiter-Glo™ Luminescent Cell Viability Assay.

[2] abbreviates: read-out: Enzyme IC50 (μM) DYRK1B.
The mark [3] stands for this setting: CellTiter-Glo, 4 days incubation.

Counter-ions that a name gives are not always drawn. Like-named read-outs stand apart in the source and are kept apart here.

The term IC50 denotes the midpoint of a concentration-inhibition curve. As a reminder, the EC50 is the concentration giving half of the maximal effect.

T1 sequence (Q9Y463 whole entry): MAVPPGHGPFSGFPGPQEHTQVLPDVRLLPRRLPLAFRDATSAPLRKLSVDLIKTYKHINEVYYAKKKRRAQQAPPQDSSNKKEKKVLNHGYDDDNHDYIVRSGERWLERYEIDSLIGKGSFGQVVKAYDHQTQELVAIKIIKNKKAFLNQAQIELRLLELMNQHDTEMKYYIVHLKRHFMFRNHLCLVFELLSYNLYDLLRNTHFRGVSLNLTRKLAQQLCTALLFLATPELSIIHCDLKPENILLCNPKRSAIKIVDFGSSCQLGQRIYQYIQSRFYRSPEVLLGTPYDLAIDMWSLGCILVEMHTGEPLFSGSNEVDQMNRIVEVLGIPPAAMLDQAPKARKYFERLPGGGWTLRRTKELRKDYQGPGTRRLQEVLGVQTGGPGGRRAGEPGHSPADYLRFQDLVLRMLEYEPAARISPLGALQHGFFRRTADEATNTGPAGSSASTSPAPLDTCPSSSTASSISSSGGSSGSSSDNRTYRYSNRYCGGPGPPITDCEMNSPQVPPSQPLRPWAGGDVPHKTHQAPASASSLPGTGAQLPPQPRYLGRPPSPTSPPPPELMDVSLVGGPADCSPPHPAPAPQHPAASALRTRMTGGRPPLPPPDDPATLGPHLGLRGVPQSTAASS

`CN1CCN(CCNc2ncc3cc(C(=O)Nc4cc(C(=O)NC(CN)c5ccccc5)ccc4Cl)c(=O)[nH]c3n2)CC1` (stereo not drawn) [Example 139, N-(5-(2-Amino-1-phenylethylcarbamoyl)-2-chlorophenyl)-2-(2-(4-methylpiperazin-1-yl)ethylamino)-7-oxo-7,8-dihydropyrido[2,3-d]pyrimidine-6-carboxamide hydrochloride]: the figures for the IC50 at Human DYRK1B (setting [2]) and on Human DYRK1A were 0.019 µM and 0.006 µM, respectively. Also, in assay [1] (setting [3]), the EC50 turned out to be 0.396 µM.

In the case of `O=C(NCc1cccc(Cl)c1)c1ccc(Cl)c(NC(=O)c2cc3cnc(NCCN4CCCC4)nc3[nH]c2=O)c1` [Example 89, 7-Oxo-2-(2-pyrrolidin-1-yl-ethylamino)-7,8-dihydro-pyrido[2,3-d]pyrimidine-6-carboxylic acid [2-chloro-5-(3-chloro-benzylcarbamoyl)-phenyl]amide], the values for the IC50 at Human DYRK1B (setting [2]) and at Human DYRK1A were 0.023 µM and 0.0189 µM, respectively. In addition, the EC50 in assay [1] (setting [3]) turned out to be 0.192 µM.

For `N[C@H]1CC[C@@H](Nc2ncc3cc(C(=O)Nc4cc(C(=O)NCc5cccc(Cl)c5)ccc4Cl)c(=O)[nH]c3n2)CC1` [Example 118, 2-((1s,4 s)-4-Aminocyclohexylamino)-N-(2-chloro-5-(3-chlorobenzylcarbamoyl)phenyl)-7-oxo-7,8-dihydropyrido[2,3-d]pyrimidine-6-carboxamide hydrochloride], the IC50 at Human DYRK1B (setting [2]) was determined as 0.0767 µM; at Human DYRK1A it was 0.0569 µM. In addition, in assay [1] (setting [3]), the EC50 amounted to 0.438 µM.

With `O=C(NC(CCO)c1ccccc1)c1ccc(Cl)c(NC(=O)c2cc3cnc(N4C[C@H]5CC[C@@H](C4)O5)nc3[nH]c2=O)c1` (stereo partly drawn) [Example 182, 2-(1R,5S)-8-Oxa-3-aza-bicyclo [3.2.1]oct-3-yl-7-oxo-7,8-dihydro-pyrido[2,3-d]pyrimidine-6-carboxylic acid [2-chloro-5-(3-hydroxy-1-phenyl-propylcarbamoyl)-phenyl]amide], the IC50 on Human DYRK1B (setting [2]) turned out to be 0.081 µM; at Human DYRK1A it was 0.083 µM. In addition, the EC50 in assay [1] (setting [3]) stood at 1.12 µM.

Consider `CC(C)(O)CNc1ncc2cc(C(=O)Nc3cc(C(=O)NCc4cccc(Cl)c4)ccc3Cl)c(=O)[nH]c2n1` [Example 127, N-(2-Chloro-5-(3-chlorobenzylcarbamoyl)phenyl)-2-(2-hydroxy-2-methylpropylamino)-7-oxo-7,8-dihydropyrido[2,3-d]pyrimidine-6-carboxamide], for which the IC50 worked out at 0.086 µM at Human DYRK1B (setting [2]) and 0.0223 µM at Human DYRK1A. The EC50 in assay [1] (setting [3]) came to 0.165 µM.

The compound `NCCC(NC(=O)c1ccc(Cl)c(NC(=O)c2cc3cnc(N4CCC(N)CC4)nc3[nH]c2=O)c1)c1ccccc1` (stereo not drawn) [Example 137, N-(5-(3-Amino-1-phenylpropylcarbamoyl)-2-chlorophenyl)-2-(4-aminopiperidin-1-yl)-7-oxo-7,8-dihydropyrido[2,3-d]pyrimidine-6-carboxamide hydrochloride] registered an IC50 on Human DYRK1B (Enzyme IC50 (μM) DYRK1B) of 0.0258 µM. Moreover, the EC50 in assay [1] amounted to 0.659 µM.

Turning to `COc1ncc2cc(C(=O)Nc3cc(C(=O)NC4(c5ccccc5)CCNCC4)ccc3Cl)c(=O)[nH]c2n1` [Example 166, N-(2-Chloro-5-(4-phenylpiperidin-4-ylcarbamoyl)phenyl)-2-methoxy-7-oxo-7,8-dihydropyrido[2,3-d]pyrimidine-6-carboxamide], the IC50 on Human DYRK1B (setting [2]) was 1.89 µM. For the same compound, in assay [1] (setting [3]), the EC50 is greater than 10 µM.

In the case of `CN1CCN(CCCNc2ncc3cc(C(=O)Nc4cc(C(=O)NC(CCN)c5ccccc5)ccc4Cl)c(=O)[nH]c3n2)CC1` (stereo not drawn) [Example 121, N-(5-(3-Amino-1-phenylpropylcarbamoyl)-2-chlorophenyl)-2-(3-(4-methylpiperazin-1-yl)propylamino)-7-oxo-7,8-dihydropyrido[2,3-d]pyrimidine-6-carboxamide hydrochloride], at Human DYRK1B (Enzyme IC50 (μM) DYRK1B), inhibition was half-maximal at 0.0137 µM (IC50). Besides, the EC50 in assay [1] was 0.157 µM.

On Human DYRK1B (Enzyme IC50 (μM) DYRK1B), `COC(=O)c1ccc(C)c(NC(=O)c2cc3cnc(OC)nc3[nH]c2=O)c1` [Example 19, 3-[(2-Methoxy-7-oxo-7,8-dihydro-pyrido[2,3-d]pyrimidine-6-carbonyl)-amino]-4-methyl-benzoic acid methyl ester] gave an IC50 of 0.252 µM. The EC50 in assay [1] was found to be 92.5 µM.

As for `CC1(C)OCC(CNc2ncc3cc(C(=O)Nc4cc(C(=O)NCc5cccc(Cl)c5)ccc4Cl)c(=O)[nH]c3n2)O1` (stereo not drawn) [Example 124, N-(2-Chloro-5-(3-chlorobenzylcarbamoyl)phenyl)-2-((2,2-dimethyl-1,3-dioxolan-4-yl)methylamino)-7-oxo-7,8-dihydropyrido[2,3-d]pyrimidine-6-carboxamide], the IC50 at Human DYRK1B (setting [2]) turned out to be 0.107 µM; at Human DYRK1A, 0.113 µM. The EC50 in assay [1] (setting [3]) is greater than 10 µM.

As for `COc1ncc2cc(C(=O)Nc3cc(C(=O)N[C@H](CN)c4ccccc4)ccc3Cl)c(=O)[nH]c2n1` [Example 133, (S)—N-(5-(2-Amino-1-phenylethylcarbamoyl)-2-chlorophenyl)-2-methoxy-7-oxo-7,8-dihydropyrido[2,3-d]pyrimidine-6-carboxamide], the IC50 at Human DYRK1B (setting [2]) came out at 0.0365 µM. Also, in assay [1], the EC50 came out at 0.738 µM.

Take `COc1ncc2cc(C(=O)Nc3cc(C(=O)N[C@@H](CCN)c4ccccc4)ccc3Cl)c(=O)[nH]c2n1` [Example 176, (S)—N-(5-(3-Amino-1-phenylpropylcarbamoyl)-2-chlorophenyl)-2-methoxy-7-oxo-7,8-dihydropyrido[2,3-d]pyrimidine-6-carboxamide]: the IC50 at Human DYRK1B (setting [2]) is 1.15 µM. Moreover, in assay [1], the EC50 is greater than 1 µM.

In the case of `COc1ncc2cc(C(=O)Nc3cc(C(N)=O)ccc3Cl)c(=O)[nH]c2n1` [Example 88, 2-Methoxy-7-oxo-7,8-dihydro-pyrido[2,3-d]pyrimidine-6-carboxylic acid (5-carbamoyl-2-chloro-phenyl)-amide], on Human DYRK1B (Enzyme IC50 (μM) DYRK1B), 0.0749 µM corresponded to half-maximal inhibition (IC50). In addition, the EC50 in assay [1] was greater than 10 µM.

As for `COc1ncc2cc(C(=O)Nc3cc(C(=O)NCc4cccs4)ccc3Cl)c(=O)[nH]c2n1` [Example 57, 2-Methoxy-7-oxo-7,8-dihydro-pyrido[2,3-d]pyrimidine-6-carboxylic acid {2-chloro-5-[(thiophen-2-ylmethyl)-carbamoyl]-phenyl}-amide], the IC50 at Human DYRK1B (Enzyme IC50 (μM) DYRK1B) is 0.096 µM. Moreover, the EC50 in assay [1] came to 2.41 µM.

For the compound `COc1ncc2cc(C(=O)Nc3cc(C(=O)NC(CCN(C)C)c4cccc(Cl)c4)ccc3Cl)c(=O)[nH]c2n1` (stereo not drawn) [Example 96, 2-Methoxy-7-oxo-7,8-dihydro-pyrido[2,3-d]pyrimidine-6-carboxylic acid {2-chloro-5-[1-(3-chloro-phenyl)-3-dimethylamino-propylcarbamoyl]-phenyl}-amide], on Human DYRK1B (setting [2]), the IC50 came to 0.233 µM. Also, in assay [1], the EC50 came to 1.97 µM.

Regarding `COc1ncc2cc(C(=O)Nc3cc(C(=O)NC(CCN)c4ccccc4)ccc3Cl)c(=O)[nH]c2n1` (stereo not drawn) [Example 76, 2-Methoxy-7-oxo-7,8-dihydro-pyrido[2,3-d]pyrimidine-6-carboxylic acid [5-(3-amino-1-phenyl-propylcarbamoyl)-2-chloro-phenyl]-amide], at Human DYRK1B (setting [2]), the IC50 is 0.0128 µM. Besides, in assay [1], the EC50 was 0.657 µM.

At Human DYRK1B (Enzyme IC50 (μM) DYRK1B), `COc1ncc2cc(C(=O)Nc3cc(C(=O)NC(CCN)c4cccc(Cl)c4)ccc3Cl)c(=O)[nH]c2n1` (stereo not drawn) [Example 84, 2-Methoxy-7-oxo-7,8-dihydro-pyrido[2,3-d]pyrimidine-6-carboxylic acid {5-[3-amino-1-(3-chloro-phenyl)-propylcarbamoyl]-2-chloro-phenyl}-amide] came in with an IC50 of 0.0108 µM. Further, the EC50 in assay [1] is 0.235 µM.

`COc1ncc2cc(C(=O)Nc3cc(C(=O)NCc4ccsc4)ccc3Cl)c(=O)[nH]c2n1` [Example 58, 2-Methoxy-7-oxo-7,8-dihydro-pyrido[2,3-d]pyrimidine-6-carboxylic acid {2-chloro-5-[(thiophen-3-ylmethyl)-carbamoyl]-phenyl}-amide] registered an IC50 against Human DYRK1B (Enzyme IC50 (μM) DYRK1B) of 0.04 µM. The EC50 in assay [1] stood at 1.73 µM.

For the compound `COc1ncc2cc(C(=O)Nc3cc(C(=O)NC(CN)c4ccccc4)ccc3Cl)c(=O)[nH]c2n1` (stereo not drawn) [Example 72, 2-Methoxy-7-oxo-7,8-dihydro-pyrido[2,3-d]pyrimidine-6-carboxylic acid [5-(2-amino-1-phenyl-ethylcarbamoyl)-2-chloro-phenyl]-amide], the IC50 on Human DYRK1B (setting [2]) is 0.00935 µM. Moreover, the EC50 in assay [1] amounted to 0.828 µM.

For the compound `CNC(=O)c1ccc(Cl)c(NC(=O)c2cc3cnc(OC)nc3[nH]c2=O)c1` [Example 78, 2-Methoxy-7-oxo-7,8-dihydro-pyrido[2,3-d]pyrimidine-6-carboxylic acid (2-chloro-5-methylcarbamoyl-phenyl)-amide], on Human DYRK1B (Enzyme IC50 (μM) DYRK1B), the midpoint of inhibition, the IC50, lay at 0.248 µM. Besides, in assay [1], the EC50 was 2.52 µM.

Turning to `COc1ncc2cc(C(=O)Nc3cc(C(=O)NCc4ccccc4)ccc3Cl)c(=O)[nH]c2n1` [Example 31, 2-Methoxy-7-oxo-7,8-dihydro-pyrido[2,3-d]pyrimidine-6-carboxylic acid (5-benzylcarbamoyl-2-chloro-phenyl)-amide], the half-inhibitory concentration (IC50) against Human DYRK1B (Enzyme IC50 (μM) DYRK1B) turned out to be 0.048 µM. In addition, the EC50 in assay [1] was greater than 100 µM.
